# “Also recorded” adds a separate entry of the source.
# Key:
# [1] = system: SK-MEL-28 and LN-met cell lines; experiment: cDNA microarray analysis of differentially regulated genes; type: cell-based, human; settings: SK-MEL-28 and LN-met after 2 days BQ788, confirmed by real-time RT-PCR
# Protocol: Cells were cultured in the presence of BQ788 or its solvent (HCO60) for 2 days and then lysed and subjected to RNA extraction using SV Total RNA isolation kit (Promega). Two rounds of RNA amplification were conducted using RiboAmp™ RNA Amplification kit (Arcturus). Labeled cDNA was obtained by reverse transcription of 6 μl amplified RNA and incorporation of Cy3-dCTP (5-Amino-propargyl-2′-dexoycytidine 5′-triphosphate coupled to Cy3 fluorescent dye) and Cy5-dCTP (5-Amino-propargyl-2′-dexoycytidine 5′-triphosphate coupled to Cy5 fluorescent dye) (Amersham Biosciences). Human 10k arrays containing PCR products spotted onto glass slides were obtained from the Lausanne DNA Array Facility (DAF). Hybridization of labeled cDNA to microarrays was preformed for 16 h at 64° C. in a humidified chamber (Corning Costar). Scanning was done in a Scanarray 4000 scanner (Perkin Elmer). Image analysis was preformed using the ScanAlyse program (version 2.5). Data analysis was done using the R package: Statistics for Microarray analysis containing com.braju.sma package (www.r-project.org).
# To explore the possible mechanisms that underlie the loss of viability of metastatic but not primary melanoma cells in response to ETRB antagonism, changes in gene expression profiles of BQ788-treated and untreated cells were investigated by cDNA microarray analysis. […]
# VEGF = experiment: Real-time RT-PCR of VEGF transcripts; type: cell-based, human; settings: BQ788 3 days
# Protocol: Equal amounts of RNA from cells that were treated with BQ788 for 3 days were subjected to real-time RT-PCR analysis for the detection VEGF (A), HIF-1α (B) and Gravin (C) transcripts. Differences in expression levels are shown as x fold change and are statistically significant (p<0.05) unless a column in marked as non significant (N.S.). Sections of two representative tumors derived from a human melanoma cell line grown in nude mice and injected either with vehicle (D) or BQ788 (E) were stained with anti CD-31 to highlight blood vessels (brown staining, Lahav et al, 1999).
# RNA was prepared from the different cell lines in different culture conditions using SV total RNA isolation kit (Promega) according to the manufacturer's protocol. For each sample RNA concentration was determined using the total RNA nano procedure of an Agilent bioanalyzer. A stock of SK-MEL-28 RNA aliquots was prepared containing 10, 20, 50, 100, 200, 500 and 1000 ng/12 μl for use as a standard curve and kept in −80° C. For the experimental unknown samples, a stock of 100 ng/12 μl RNA aliquots from each cell line and condition was prepared and stored at −80° C. For each real-time experiment one series of standard curve and unknown experimental series of aliquots was put on ice for use. Complementary DNA was prepared by adding to each tube 0.5 μl of random hexamers (Promega) and 1 μl of 10 mM dNTP mix (Promega) and incubating at 65° C. for 5 min. 4 μl of 5× M-MLV buffer (Promega), 1 μl of the RNase inhibitor RNasin (Promega) and 1 μl of M-MLV RT RNase H (Promega) were then added and the solution was incubated at 42° C. for 50 min followed by 15 min at 70° C. For real time reactions 15 μl of each cDNA sample were transferred to 3 wells in a 386 well plate. To each well we added 10 μl of TaqMan universal PCR master mix (Applied Biosystems), 1 μl of primers+probe mix (Assays-on-Demand from Applied Biosystems: EDNRB Hs00240747, BCL-2A1 Hs00187845, PARP-3 Hs00154151, VEGF Hs00173626, HIF-1α Hs00153153 and Gravin Hs00374507) and 4 μl of nuclease free water (Promega). Wells containing water instead of cDNA served as negative controls. The samples were subjected to 40 cycles of 15 sec at 95° C. and 1 min at 60° C. A standard curve of Ct versus RNA quantity was established and accordingly the Ct in the unknown samples was correlated to quantity of transcript.
# Real-time PCR analysis confirmed that VEGF expression levels increased 18-fold in BQ788 treated LN-met cells and 65-fold in SK-MEL-28 cells, compared to only 2-fold in primary melanoma, and no change in the Cut-met line (FIG. 5). The changes in VEGF expression levels can be explained, at least in part, by changes in the expression levels of its known regulator hypoxia inducible factor-1 oc (HIF-1α) (Maxwell, et al., Oxygen sensors and angiogenesis, Semin. Cell Dev. Biol., 13:29-37 (2002)). […]
smiles,measurement,setting,value
"CCCC[C@@H](NC(=O)[C@@H](Cc1cn(C(=O)OC)c2ccccc12)NC(=O)[C@H](CC(C)(C)C)NC(=O)N1[C@H](C)CCC[C@@H]1C)C(=O)O [BQ788, N-cis-2,6-dimethylpiperidinocarbonyl-L-γ-methylleucyl-D-1-methoxycarbonyltrptophanyl-D-norleucine]",Down regulated gene,[1],BCL2-A1; also recorded: PARP-3; also recorded: Gravin; also recorded: EDNRB
same,Up regulated gene,[1],VEGF and HIF-1α
same,VEGF expression level change,VEGF; Cut-met line,no change
same,increase in VEGF expression levels,VEGF; LN-met cells,18 fold
same,increase in VEGF expression levels,VEGF; SK-MEL-28 cells,65 fold
same,increase in VEGF expression levels,VEGF; primary melanoma,2 fold
